In US6534311B2, “Drosophila melanogaster p70S6 kinase” (Novartis AG, priority 1996, dated 2003):

Legend:
[1] = system: S6 kinase activity in S2 cells; assay type: cell-based, Drosophila; conditions: S2 cells treated with 100 μM cycloheximide for two hours
Method: (§1) Cell extracts are prepared and Drosophila p70^S6K activity is measured as previously described (28) or following immunoprecipitation (Lane, H. A., et al. (1992) EMBO J 11, 1743-1749) with the D20 antibody (2.5 μg).
S2 cells are plated at 5×10^7 cells per 15 cm dish in Schneider's medium supplemented with antibiotic and 10% foetal calf serum. After 24 h, cells are changed to Schneider's medium without serum and after an additional 36 h, 5 plates of cells are treated with 100 μM cycloheximide for two hours with or without pretreatment with […] rapamycin for 15 min. Cell extracts are prepared by dounce homogenisation in Extraction buffer lacking PNPP as described in Reinhard et al., above. Briefly, each extract is centrifuged for 30 min at 3×105 g, filtered through a 0.2 μm membrane (Millipore), and applied at a flow rate of 0.5ml per min to a 1 ml Mono Q column (Pharmacia) equilibrated in Buffer F (Kozma, S.C., et al. (1989) EMBO J 8, 4125-4132). The column is washed with 10 ml of Buffer F, developed at 0.5 ml per min with a 30 ml gradient from 0-0.5M NaCl in the same buffer, and each fraction is diluted 20-fold and assayed for kinase activity. Factions 16-19 are concentrated on 100 μl of FFQ Sepharose and eluted with 300 μl of 0.5M NaCl in Buffer F. […]

[2] = system: Drosophila p70S6K; test: S6 kinase activity immunoprecipitated with D20 antibody from concentrated Mono Q fractions; assay type: cell-based, Drosophila melanogaster; conditions: cycloheximide-treated S2 cells, D20 immunoprecipitate and Western blot mobility
Method: as §1
S2 cells are plated at 5×10^7 cells per 15 cm dish in Schneider's medium supplemented with antibiotic and 10% foetal calf serum. After 24 h, cells are changed to Schneider's medium without serum and after an additional 36 h, 5 plates of cells are treated with 100 μM cycloheximide for two hours with or without pretreatment with […] rapamycin for 15 min. Cell extracts are prepared by dounce homogenisation in Extraction buffer lacking PNPP as described in Reinhard et al., above. […]
To distinguish between these rapamycin sensitive and insensitive S6 kinase activities and to determine whether either represented Drosophila p70^S6K, extracts from cycloheximide-stimulated S2 cells, pretreated with or without rapamycin, are fractionated by Mono Q chromatography. The fractions eluted from the Mono Q column are monitored by A280 and subjected to an in vitro S6 kinase assay. […] The concentrated samples from cells treated with cycloheximide either in the absence or presence of rapamycin pretreatment, are either immunoprecipitated and assayed for S6 kinase activity or analysed on Western blots employing the D20 antibody. […]

Compound: C[C@@H]1C[C@@H]([C@H](O)CC2CC(=O)NC(=O)C2)C(=O)[C@@H](C)C1 [cycloheximide]
- increase of S6 kinase activity over basal levels [1]: 2.2 fold
- activation of Drosophila p70S6K [2]: induces the activation
